Assay results reported in article PMC9579956 (RSC Medicinal Chemistry, 2022).

What follows are compounds tested against Mycobacterium thermoresistible (Mtr) LpqY (Mycolicibacterium thermoresistibile, UniProt G7CES0). Details: single dose MST screen against LpqY.
Chain of Mycobacterium thermoresistible (Mtr) LpqY (G7CES0 29-471): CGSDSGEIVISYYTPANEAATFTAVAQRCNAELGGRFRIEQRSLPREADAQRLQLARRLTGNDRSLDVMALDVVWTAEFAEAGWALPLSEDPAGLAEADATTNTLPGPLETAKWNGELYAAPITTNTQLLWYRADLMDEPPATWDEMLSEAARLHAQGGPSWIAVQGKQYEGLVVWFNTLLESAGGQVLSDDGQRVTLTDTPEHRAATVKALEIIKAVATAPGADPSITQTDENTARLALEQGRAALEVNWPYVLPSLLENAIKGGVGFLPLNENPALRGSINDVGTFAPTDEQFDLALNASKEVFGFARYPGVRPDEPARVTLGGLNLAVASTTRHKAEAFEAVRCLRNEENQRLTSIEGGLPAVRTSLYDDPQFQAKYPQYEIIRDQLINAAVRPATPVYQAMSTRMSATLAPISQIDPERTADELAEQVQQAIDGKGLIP
Type: binding
With `CC(C)(C)c1cc(C(=O)N2CCN(c3nccnc3C#N)CC2)n(Cc2ccccc2)n1` [MMV023949] the “Pathogen Box screen signal/noise ratio” value was 0.7.
With `O=C(Nc1cccc(-c2ccc(NCCCN3CCCC3)nc2)c1)c1ccccc1` [MMV023953] the “Pathogen Box screen signal/noise ratio” value was 2.4.
`c1cncc(NCc2ccc(-c3cc4ccncc4cc3OC3CCNCC3)s2)c1` [MMV023969] was tested, and the “Pathogen Box screen signal/noise ratio” value was 1.3.
With `COc1ccc(-c2cnc3ccc(N4CCCC4)nn23)cc1OC` [MMV023985] the “Pathogen Box screen signal/noise ratio” value was 2.0.
For `O=C(Nc1ccccc1)c1ccc(-c2cc3ccncc3cc2OC2CCNCC2)s1` [MMV024035], the “Pathogen Box screen signal/noise ratio” value was 2.8.
With `NS(=O)(=O)c1cncc(-c2ccc3nccc(-c4cn[nH]c4)c3n2)c1` [MMV024101] the “Pathogen Box screen signal/noise ratio” value was 0.429.
For `Cc1ccc(S(=O)(=O)n2cc(-c3ccnc(N)c3)c3cc(Br)cnc32)cc1` [MMV024114], the “Pathogen Box screen signal/noise ratio” value was 1.1.
`CN(C)CCNC(=O)N1CCCN(c2ncnc3cc(-c4ccccc4)sc23)CC1` [MMV024195] was tested, and the “Pathogen Box screen signal/noise ratio” value was 0.217.
With `Cc1ccc2[nH]c(C3CCCNC3)c(-c3ccncc3)c2c1` (stereo not drawn) [MMV024311] the “Pathogen Box screen signal/noise ratio” value was 0.4.
`O=C(NC1CC1)c1ccc(N2CCC(Cc3ccccc3)CC2)nc1` [MMV024397] was tested, and the “Pathogen Box screen signal/noise ratio” value was 0.8.
In the case of `CN(C(=O)c1cc2c(-c3cncnc3)cccc2[nH]1)c1ccccc1` [MMV024443], the “Pathogen Box screen signal/noise ratio” value is reported as -0.0357.
`Cc1cccc(C(=O)Nc2ccnc(N(C)C3CCN(CC(C)C)CC3)c2)c1` [MMV024829] was tested, and the “Pathogen Box screen signal/noise ratio” value was -0.0167.
For `O=C(Nc1ccc(N2CCNCC2)nc1)c1oc(-c2ccccc2)nc1C(F)(F)F` [MMV024937], the “Pathogen Box screen signal/noise ratio” value was 2.9.
For `CS(=O)(=O)c1cccc(-c2cnc3[nH]cc(-c4ccc(CCC(=O)O)cc4)c3c2)c1` [MMV026020], the “Pathogen Box screen signal/noise ratio” value was 1.4.
With `Nc1nccc2ccc(Oc3ccncc3)cc12` [MMV026313] the “Pathogen Box screen signal/noise ratio” value was 1.4.
In the case of `CCn1ncc2c(NC3CCOCC3)c(CNC(=O)c3ccnn3C)c(C)nc21` [MMV026356], the “Pathogen Box screen signal/noise ratio” value is reported as 0.6.
For `OCc1ccc(-c2cncc(Nc3cccc(Cl)c3)c2)cc1` [MMV026468], the “Pathogen Box screen signal/noise ratio” value was 0.563.
For `O=C(NCCc1ccccc1)c1cc(-c2cccnc2)cnc1NCC1CC1` [MMV026490], the “Pathogen Box screen signal/noise ratio” value was 1.4.
`CC(C)(C)CN1C(=O)C(c2ccccc2)(c2ccccc2)N=C1N` [MMV026550] was tested, and the “Pathogen Box screen signal/noise ratio” value was 0.455.
With `OCCc1ccc(Nc2nccc(-c3nnc4ccccn34)n2)cc1` [MMV028694] the “Pathogen Box screen signal/noise ratio” value was 1.5.
`CC(C)(CN)c1nc(-c2ccc(Cl)c(O)c2)c(-c2ccnc(N)n2)[nH]1` [MMV030734] was tested, and the “Pathogen Box screen signal/noise ratio” value was 3.5.
For `FC(F)(F)c1cccc(-c2nc3c(NCc4ccncc4)nccc3[nH]2)c1` [MMV032967], the “Pathogen Box screen signal/noise ratio” value was 3.3.
`O=C1COCc2ccc(Br)cc2N1Cc1ccc(C(F)(F)F)cc1` [MMV032995] was tested, and the “Pathogen Box screen signal/noise ratio” value was 0.9.
`c1ccc(Oc2ccc(-c3cc(N4CCOCC4)[nH]n3)cc2)cc1` [MMV045105] was tested, and the “Pathogen Box screen signal/noise ratio” value was 1.1.
In the case of `COc1cc(C(F)(F)F)nc2ccc(C)c(N)c12` [MMV047015], the “Pathogen Box screen signal/noise ratio” value is reported as 2.0.
`N#Cc1ccc(-c2ccc(OCC(N)=O)cc2)cc1` [MMV053220] was tested, and the “Pathogen Box screen signal/noise ratio” value was 0.639.
With `CC(=O)N1CCc2cc3nc(C)cc(C)c3cc21` [MMV054312] the “Pathogen Box screen signal/noise ratio” value was 0.107.
With `Cc1cc(C)nc(-n2nc(C)cc2Nc2ccccc2)n1` [MMV062221] the “Pathogen Box screen signal/noise ratio” value was 0.8.
In the case of `Cc1nn(Cc2ccccc2)c(Cl)c1C(=O)NC1CCCCCC1` [MMV063404], the “Pathogen Box screen signal/noise ratio” value is reported as 2.2.
`FC(F)(F)c1nnc2ccc(Cl)nn12` [MMV069458] was tested, and the “Pathogen Box screen signal/noise ratio” value was 2.4.
For `O=C1N(Cc2cc3ccccc3s2)CC2CN(Cc3ccccc3)CCN12` (stereo not drawn) [MMV084603], the “Pathogen Box screen signal/noise ratio” value was 1.3.
For `O=C(Nc1cnc2ccccc2c1)c1cccc(-n2cnnn2)c1` [MMV084864], the “Pathogen Box screen signal/noise ratio” value was 1.5.
With `COc1cncc(-c2cncc(N3CCN(c4ccncc4)CC3)n2)c1` [MMV085071] the “Pathogen Box screen signal/noise ratio” value was 1.2.
In the case of `O=C(C(Cc1c[nH]c2ccccc12)NS(=O)(=O)c1ccc(Cl)cc1)N1CCCCC1` (stereo not drawn) [MMV085210], the “Pathogen Box screen signal/noise ratio” value is reported as 2.9.
`CCCNC(=O)N1CCC2(CC1)CC(=O)c1cc(C)ccc1O2` [MMV085230] was tested, and the “Pathogen Box screen signal/noise ratio” value was 1.0.
In the case of `N#Cc1ccc(-c2cnc(N)c(-c3ccc(C(N)=O)cc3)n2)cc1` [MMV085499], the “Pathogen Box screen signal/noise ratio” value is reported as 2.4.
In the case of `Cc1nn2c(O)c3c(nc2c1-c1ccc(F)cc1)CCCC3` [MMV099637], the “Pathogen Box screen signal/noise ratio” value is reported as 3.3.
`O=C(Nc1nnc(-c2ccc(Cl)cc2)o1)c1cccc(C(F)(F)F)c1` [MMV102872] was tested, and the “Pathogen Box screen signal/noise ratio” value was 0.75.
For `CCC(C)NC(=O)c1ccc(NC(=O)C2(c3ccccc3)CCCC2)cc1` (stereo not drawn) [MMV146306], the “Pathogen Box screen signal/noise ratio” value was -0.653.
With `CCOC(=O)c1c(NC(=O)c2c(F)c(F)c(F)c(F)c2F)sc(C(N)=O)c1C` [MMV153413] the “Pathogen Box screen signal/noise ratio” value was 1.3.
`Cc1cc(Cl)ccc1NC(=O)CCc1ccc(S(=O)(=O)NCC(C)C)cc1` [MMV161996] was tested, and the “Pathogen Box screen signal/noise ratio” value was 1.2.
With `CNC(=O)C1Cc2ccccc2N1C(=O)Cc1ccc(F)cc1` (stereo not drawn) [MMV188296] the “Pathogen Box screen signal/noise ratio” value was 1.9.
With `COc1ccc(C2(C(=O)Nc3ccc(Br)cc3)CCCC2)cc1` [MMV200748] the “Pathogen Box screen signal/noise ratio” value was 1.4.
`CCC(=O)Nc1ccccc1C(=O)Nc1ccccn1` [MMV202553] was tested, and the “Pathogen Box screen signal/noise ratio” value was 1.4.
For `COc1cccc(NC(=O)c2c(NC(=O)c3cccnc3)sc3c2CCC3)c1` [MMV228911], the “Pathogen Box screen signal/noise ratio” value was 2.2.
`COc1cccc(-n2nnnc2S(C)(=O)=O)c1` [MMV272144] was tested, and the “Pathogen Box screen signal/noise ratio” value was 0.7.
In the case of `COc1cccc(-c2cc3c(Nc4cccnc4)nccc3[nH]2)c1` [MMV392832], the “Pathogen Box screen signal/noise ratio” value is reported as 2.1.
In the case of `CN1CCN(c2nccc3[nH]c(-c4cccc(F)c4)cc23)CC1` [MMV393144], the “Pathogen Box screen signal/noise ratio” value is reported as 1.4.
In the case of `Cc1cc(O)nc(-n2nc(C)cc2C)n1` [MMV393995], the “Pathogen Box screen signal/noise ratio” value is reported as 0.65.
For `CCc1nc2ccc(C(=O)NCc3ccc4c(c3)OCO4)cn2c1N(C)Cc1cccs1` [MMV407539], the “Pathogen Box screen signal/noise ratio” value was 0.241.
With `CCOc1ccccc1NC(C)C(=O)Nc1cc(C(F)(F)F)ccc1N1CCOCC1` (stereo not drawn) [MMV407834] the “Pathogen Box screen signal/noise ratio” value was 2.3.
With `COC(=O)c1c(NC(=O)c2c(F)c(F)c(F)c(F)c2F)sc2c1CCCCC2` [MMV461553] the “Pathogen Box screen signal/noise ratio” value was 2.6.
For `CC(C)(C)c1cnc(NC(=O)c2ccccc2O)s1` [MMV495543], the “Pathogen Box screen signal/noise ratio” value was 0.8.
With `CS(=O)(=O)Cc1nc2ccccc2oc1=O` [MMV553002] the “Pathogen Box screen signal/noise ratio” value was 3.2.
In the case of `c1ccc(-c2cc(N3CCCCC3)c3ccccc3n2)nc1` [MMV560185], the “Pathogen Box screen signal/noise ratio” value is reported as 0.7.
In the case of `CCN(CC)S(=O)(=O)c1ccc(C(=O)Nc2cc(C)nn2-c2nc(C)c(C)c(=O)[nH]2)cc1` [MMV595321], the “Pathogen Box screen signal/noise ratio” value is reported as 0.167.
In the case of `CCC(Sc1nc2ccccc2o1)C(=O)Nc1nnc(C)s1` (stereo not drawn) [MMV611037], the “Pathogen Box screen signal/noise ratio” value is reported as 0.9.
With `O=C(NCCN1CCCC1)c1cc(NCCN2CCOCC2)nc2ccc(Cl)cc12` [MMV634140] the “Pathogen Box screen signal/noise ratio” value was 0.9.
With `Cc1ccc(C(=O)Nc2ccc(S(=O)(=O)O)c3cc(S(=O)(=O)O)cc(S(=O)(=O)O)c23)cc1NC(=O)c1cccc(NC(=O)Nc2cccc(C(=O)Nc3cc(C(=O)Nc4ccc(S(=O)(=O)O)c5cc(S(=O)(=O)O)cc(S(=O)(=O)O)c45)ccc3C)c2)c1` [MMV637953] the “Pathogen Box screen signal/noise ratio” value was 0.7.
In the case of `O=C(Nc1ccc2c(c1)B(O)OC2)c1ccccc1C(F)(F)F` [MMV652003], the “Pathogen Box screen signal/noise ratio” value is reported as 0.444.
For `Cc1nc(-c2ccccn2)nc(N(C)CCc2ccccc2)c1Cl` [MMV658988], the “Pathogen Box screen signal/noise ratio” value was 2.9.
With `Cc1nc(-c2ccccn2)nc(NCCc2ccc(S(C)(=O)=O)cc2)c1Cl` [MMV658993] the “Pathogen Box screen signal/noise ratio” value was 0.75.
With `Cc1nc(-c2ccccn2)nc(N2CCC(Cc3ccccc3)C2)c1Cl` (stereo not drawn) [MMV659004] the “Pathogen Box screen signal/noise ratio” value was 0.2.
`FC(F)(F)c1cc(NCCc2ccccc2)nc(-c2ccccn2)n1` [MMV659010] was tested, and the “Pathogen Box screen signal/noise ratio” value was 1.0.
For `Brc1cncc(-c2cc(NCCCn3ccnc3)nc(-c3ccccc3)n2)c1` [MMV661713], the “Pathogen Box screen signal/noise ratio” value was 0.5.
`Clc1cccc(C(c2ccc(CN3CCNCC3)cc2)n2ccnc2)c1` (stereo not drawn) [MMV663250] was tested, and the “Pathogen Box screen signal/noise ratio” value was 0.278.
For `O=C(NCCN1CCCC1)c1cc(NCCCCN2CCC(F)(F)CC2)nc2ccc(Cl)cc12` [MMV667494], the “Pathogen Box screen signal/noise ratio” value was 0.344.
For `Nc1ncc(-c2ccc(C(F)(F)F)nc2)cc1-c1ccc(C(F)(F)F)nc1` [MMV668727], the “Pathogen Box screen signal/noise ratio” value was 2.0.
`Cc1[nH]c2cc(F)cc(F)c2c(=O)c1-c1ccc(Oc2ccc(OC(F)(F)F)cc2)cc1` [MMV671636] was tested, and the “Pathogen Box screen signal/noise ratio” value was 0.545.
With `COc1ccc(OC)c(NCc2ccc3nc(N)nc(N)c3c2Cl)c1` [MMV675968] the “Pathogen Box screen signal/noise ratio” value was 5.0.
`CC(C)(C)c1ccc(N[C@@H]2CCCC[C@H]2NC(=O)c2ccco2)cc1` [MMV675969] was tested, and the “Pathogen Box screen signal/noise ratio” value was 0.3.
With `COc1ccc(-c2nn(C(C)C)c3ncnc(N)c23)cc1OC` [MMV675993] the “Pathogen Box screen signal/noise ratio” value was 0.75.
`Clc1ccc(-n2cc(COc3ccnc4ccccc34)nn2)cc1` [MMV675994] was tested, and the “Pathogen Box screen signal/noise ratio” value was 3.3.
In the case of `COc1ccc(N(CCc2cccc(C)n2)C(C)=O)cc1` [MMV675995], the “Pathogen Box screen signal/noise ratio” value is reported as 0.318.
In the case of `N#CCN(CCCCN1CCN(c2ccc(F)cc2)CC1)C(=O)OCc1ccccc1` [MMV675997], the “Pathogen Box screen signal/noise ratio” value is reported as 0.322.
For `COc1ccc(C(=N)N)cc1-c1cn(-c2ccc(C(=N)N)cc2)nn1` [MMV675998], the “Pathogen Box screen signal/noise ratio” value was 1.0.
In the case of `O=C(Nc1c(O)cccc1-c1nc2c(C(=O)O)cccc2o1)c1cc(-c2ccccc2)on1` [MMV676008], the “Pathogen Box screen signal/noise ratio” value is reported as 1.7.
For `Clc1ccc(Cl)c(CO[C@H]2CCCC[C@@H]2n2ccnc2)c1` [MMV676048], the “Pathogen Box screen signal/noise ratio” value was 1.1.
For `CS(=O)(=O)N1CCC(Cn2nc(Cc3cccc4ccccc34)c3c(N)ncnc32)CC1` [MMV676050], the “Pathogen Box screen signal/noise ratio” value was 0.8.
With `COc1cc(NC(=O)Cc2nn(C)c(=O)c3ccccc23)ccc1Cl` [MMV676053] the “Pathogen Box screen signal/noise ratio” value was 1.3.
For `CC(C)(C)OC(=O)N1CCN(c2cc(-c3ccc(Oc4ccccc4)cc3)n[nH]2)CC1` [MMV676057], the “Pathogen Box screen signal/noise ratio” value was 1.2.
